In patent publication US20260042764A1, “COMPOSITIONS AND METHODS FOR INHIBITION OF KRAS” (TheRas, Inc., priority 2022, published 2026):

Experiments:
SW620 cells (KRAS G12V) = test: Cell-based pERK HTRF assay in SW620 cell (Biological Example 4); settings: Homo sapiens, SW-620, SW620 (KRAS G12V) cells, pERK HTRF
Outline: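 Read-out: HTRF pERK signal (excitation 320 nm, emission 615 nm) from lysates of SW620 cells after 4 h compound exposure. Dose range was 9 points, half-log steps from 1 μM, in 0.25% DMSO; antibody incubation ran 4–24 h at room temperature.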

[1] = target: T1, Avi-KRAS G12R (1-169) GppNHp/RAF1 RBD-3xFLAG (52-151) (Homo sapiens, UniProt P01116, G12R); test: Raf1-KRAS G12R-GppNHP disruption HTRF assay (Biological Example 1); format: binding
T1 construct: Avi-KRAS G12R (1-169)
T1 sequence (P01116 1-169 isoform P01116-2 G12R): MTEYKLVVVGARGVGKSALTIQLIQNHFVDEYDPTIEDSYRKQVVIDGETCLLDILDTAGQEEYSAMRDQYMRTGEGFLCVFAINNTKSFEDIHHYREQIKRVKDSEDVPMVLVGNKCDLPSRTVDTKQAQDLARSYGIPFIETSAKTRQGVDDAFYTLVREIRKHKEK
Outline: (§1)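 HTRF PPI disruption; buffer 50 mM Tris pH 7.5, 100 mM NaCl, 5 mM MgCl2, 0.1% BSA, 0.01% Tween, 10% DMSO. Protein mix 1 h RT shaking, reagent mix 1 h RT shaking. Data as % activity vs DMSO (100%).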

[2] = target: T2, Avi-KRAS G12V (1-169) GppNHp/RAF1 RBD-3xFLAG (52-151) (Homo sapiens, UniProt P01116, G12V); test: Raf1-KRAS G12V-GppNHP disruption HTRF assay (Biological Example 1); format: binding
T2 construct: Avi-KRAS G12V (1-169)
T2 sequence (P01116 1-169 isoform P01116-2 G12V): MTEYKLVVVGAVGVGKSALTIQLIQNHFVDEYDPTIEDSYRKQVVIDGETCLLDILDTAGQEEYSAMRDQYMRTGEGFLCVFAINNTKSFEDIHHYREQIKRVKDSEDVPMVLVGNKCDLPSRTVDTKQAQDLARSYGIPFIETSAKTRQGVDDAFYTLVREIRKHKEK
Outline: as §1

[3] = target: T3, Avi-KRAS WT (1-169) GppNHp/RAF1 RBD-3xFLAG (52-151) (Homo sapiens, UniProt P01116); test: Raf1-KRAS WT-GppNHP disruption HTRF assay (Biological Example 1); format: binding
T3 construct: Avi-KRAS WT (1-169)
T3 sequence (P01116 1-169 isoform P01116-2): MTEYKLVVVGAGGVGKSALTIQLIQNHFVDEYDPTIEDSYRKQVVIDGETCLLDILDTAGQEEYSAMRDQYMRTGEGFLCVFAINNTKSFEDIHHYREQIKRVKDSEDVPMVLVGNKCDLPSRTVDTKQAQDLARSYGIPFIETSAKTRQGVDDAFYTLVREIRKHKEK
Outline: as §1

GP2d cells (KRAS G12D) = test: Cell-based pERK HTRF assay in GP2d cell (Biological Example 2); settings: GP2d, GP2d (KRAS G12D) cells, pERK HTRF
Outline: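 Phospho-ERK in lysed cells was detected by HTRF using Eu cryptate and d2 antibodies, read between 4 and 24 h at room temperature. Prior to lysis, KRAS G12D GP2d cells, seeded the day before in DMEM with 10% FBS, were exposed to compounds for 60 min. Compounds were tested as 9-point half-log curves from 1 μM or 100 nM top, with 0.25% DMSO.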

[4] = target: T4, Avi-KRAS G12D (1-169) GppNHp/RAF1 RBD-3xFLAG (52-151) (Homo sapiens, UniProt P01116, G12D); test: Raf1-KRAS G12D-GppNHP disruption HTRF assay (Biological Example 1); format: binding
T4 construct: Avi-KRAS G12D (1-169)
T4 sequence (P01116 1-169 isoform P01116-2 G12D): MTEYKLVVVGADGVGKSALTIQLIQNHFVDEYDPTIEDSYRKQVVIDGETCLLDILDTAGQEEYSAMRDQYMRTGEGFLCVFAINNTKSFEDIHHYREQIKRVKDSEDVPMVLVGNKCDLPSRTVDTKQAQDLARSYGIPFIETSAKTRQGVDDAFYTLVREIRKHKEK
Outline: as §1

[5] = KRAS G12R, GppNHp-loaded, class symbols
[6] = KRAS G12V, GppNHp-loaded, class symbols
[7] = KRAS WT, GppNHp-loaded, class symbols
[8] = KRAS G12D, GppNHp-loaded, class symbols
[9] = KRAS G12R, GppNHp-loaded, Table 11
[10] = KRAS G12V, GppNHp-loaded, Table 11
[11] = KRAS WT, GppNHp-loaded, Table 11
[12] = KRAS G12D, GppNHp-loaded, Table 11

IC50 (SW620 cells (KRAS G12V)) [nM] | IC50 ([1]; KRAS G12R-GppNHp/RAF1 RBD HTRF) [nM] | IC50 ([2]; KRAS G12V-GppNHp/RAF1 RBD HTRF) [nM] | IC50 ([3]; KRAS WT-GppNHp/RAF1 RBD HTRF) [nM] | IC50 (GP2d cells (KRAS G12D)) [nM] | IC50 ([4]; KRAS G12D-GppNHp/RAF1 RBD HTRF) [nM] | IC50 (SW620 cells (KRAS G12V); class symbols) [nM] | IC50 [1, 5] [nM] | IC50 [2, 6] [nM] | IC50 [3, 7] [nM] | IC50 (GP2d cells (KRAS G12D); class symbols) [nM] | IC50 [4, 8] [nM] | IC50 [1, 9] [nM] | IC50 [2, 10] [nM] | IC50 [3, 11] [nM] | IC50 [4, 12] [nM] | SMILES
< 100 | 100 to 1000 | 100 to 1000 | 100 to 1000 | < 100 | 100 to 1000 |  |  |  |  |  |  |  |  |  |  | C[C@H]1[C@H](O)CCCN1c1nc(OC[C@@]23CCCN2C[C@H](F)C3)nc2c(F)c(-c3ccc(F)c4sc(N)c(C#N)c34)c(C(F)(F)F)cc12 [Compound 473]
< 100 | 100 to 1000 | 100 to 1000 | 100 to 1000 | < 100 | 100 to 1000 |  |  |  |  |  |  |  |  |  |  | CN(C)C(=O)c1cn2c(n1)CN(c1nc(OC[C@@]34CCCN3C[C@H](F)C4)nc3c(F)c(-c4ccc(F)c5sc(N)c(C#N)c45)c(C(F)(F)F)cc13)CC2 [Compound 419]
 |  |  |  |  |  | < 100 | 100 to 1000 | 100 to 1000 | 100 to 1000 | < 100 | 100 to 1000 |  |  |  |  | CCN(c1nc(OC[C@@]23CCCN2C[C@H](F)C3)nc2c(F)c(-c3ccc(F)c4sc(N)c(C#N)c34)c(C(F)(F)F)cc12)[C@H]1C[C@@H](COC)N(C(C)=O)C1 (atropisomer, axis not shown) [Compound 632]
 |  |  |  |  |  | < 100 | < 100 | < 100 | < 100 | < 100 | < 100 |  |  |  |  | CCN(c1nc(OCC23CCCN2CC(F)C3)nc2c(F)c(-c3ccc(F)c4sc(N)c(C#N)c34)c(C(F)(F)F)cc12)C1CCN(C(=O)c2ccccn2)C1 (stereo not drawn) [Compound 737]
 |  |  |  |  |  | < 100 | < 100 | < 100 | < 100 | < 100 | < 100 |  |  |  |  | CCN(c1nc(OC[C@@]23CCCN2C[C@H](F)C3)nc2c(F)c(-c3ccc(F)c4sc(N)c(C#N)c34)c(C(F)(F)F)cc12)[C@H]1C[C@@H]2CCC(=O)N2C1 (atropisomer, axis not shown) [Compound 628]
 |  |  |  |  |  | < 100 | < 100 | < 100 | < 100 | < 100 | < 100 |  |  |  |  | CCN(c1nc(OC[C@@]23CCCN2C[C@H](F)C3)nc2c(F)c(-c3ccc(F)c4sc(N)c(C#N)c34)c(C(F)(F)F)cc12)[C@@H]1CN2C(=O)OC[C@]2(C)C1 (atropisomer, axis not shown) [Compound 795]
100 to 1000 | 100 to 1000 | 100 to 1000 | 100 to 1000 | < 100 | 100 to 1000 |  |  |  |  |  |  |  |  |  |  | CC(=O)N1C[C@@H](C)[C@H](N(C)c2nc(OC[C@@]34CCCN3C[C@H](F)C4)nc3c(F)c(-c4ccc(F)c5sc(N)c(C#N)c45)c(C(F)(F)F)cc23)C1 [Compound 303]
 |  |  |  |  |  | < 100 | < 100 | 100 to 1000 | 100 to 1000 | < 100 | < 100 |  |  |  |  | CC(C)C(=O)N1CC[C@H](N(CCF)c2nc(OC[C@@]34CCCN3C[C@H](F)C4)nc3c(F)c(-c4ccc(F)c5sc(N)c(C#N)c45)c(C(F)(F)F)cc23)C1 (atropisomer, axis not shown) [Compound 814]
100 to 1000 | 100 to 1000 | 100 to 1000 | 100 to 1000 | < 100 | 100 to 1000 |  |  |  |  |  |  |  |  |  |  | CCN(c1nc(OC[C@@]23CCCN2C[C@H](F)C3)nc2c(F)c(-c3ccc(F)c4sc(N)c(C#N)c34)c(C(F)(F)F)cc12)[C@@H]1CCN(C(C)=O)[C@H]1C [Compound 414]
< 100 | 100 to 1000 | 100 to 1000 | 100 to 1000 | < 100 | < 100 |  |  |  |  |  |  |  |  |  |  | CCN(c1nc(OC[C@@]23CCCN2C[C@H](F)C3)nc2c(F)c(-c3ccc(F)c4sc(N)c(C#N)c34)c(C(F)(F)F)cc12)[C@H]1CC(=O)N(CC(F)F)C1 [Compound 549]
 |  |  |  |  |  | < 100 | 100 to 1000 | 100 to 1000 | 100 to 1000 | < 100 | 100 to 1000 |  |  |  |  | CCN(c1nc(OC[C@@]23CCCN2C[C@H](F)C3)nc2c(F)c(-c3ccc(F)c4sc(N)c(C#N)c34)c(C(F)(F)F)cc12)[C@@H]1C[C@H](C)N(C(=O)COC)C1 (atropisomer, axis not shown) [Compound 589]
100 to 1000 | 100 to 1000 | 1000 to 10000 | 100 to 1000 | < 100 | 100 to 1000 |  |  |  |  |  |  |  |  |  |  | N#Cc1c(N)sc2c(F)ccc(-c3c(C(F)(F)F)cc4c(N5C6CC5CS(=O)(=O)C6)nc(OC[C@@]56CCCN5C[C@H](F)C6)nc4c3F)c12 [Compound 357]
 |  |  |  |  |  | < 100 | < 100 | < 100 | < 100 | < 100 | < 100 |  |  |  |  | CCN(c1nc(OC[C@@]23CCCN2C[C@H](F)C3)nc2c(F)c(-c3ccc(F)c4sc(N)c(C#N)c34)c(C(F)(F)F)cc12)[C@H]1CCN(C(=O)OC2COC2)[C@@H]1C (atropisomer, axis not shown) [Compound 809]
< 100 | 100 to 1000 | 100 to 1000 | 100 to 1000 | < 100 | 100 to 1000 |  |  |  |  |  |  |  |  |  |  | N#Cc1c(N)sc2c(F)ccc(-c3c(C(F)(F)F)cc4c(N5CCS(=N)(=O)CC5)nc(OC[C@@]56CCCN5C[C@H](F)C6)nc4c3F)c12 [Compound 297]
< 100 | 100 to 1000 | 100 to 1000 | 100 to 1000 | < 100 | 100 to 1000 |  |  |  |  |  |  |  |  |  |  | C[C@@H]1[C@H](N(C)c2nc(OC[C@@]34CCCN3C[C@H](F)C4)nc3c(F)c(-c4ccc(F)c5sc(N)c(C#N)c45)c(C(F)(F)F)cc23)CCN1C(=O)C(C)(F)F [Compound 459]
< 100 |  |  |  | < 100 |  |  |  |  |  |  |  | 100 to 1000 | 100 to 1000 | 100 to 1000 | 100 to 1000 | C[C@@H]1COC[C@H](C)N1c1nc(OC[C@@]23CCCN2C[C@H](F)C3)nc2c(F)c(-c3ccc(F)c4sc(N)c(C#N)c34)c(C(F)(F)F)cc12 [Compound 201]
< 100 | 100 to 1000 | 100 to 1000 | 100 to 1000 | < 100 | 100 to 1000 |  |  |  |  |  |  |  |  |  |  | CCN(c1nc(OC[C@@]23CCCN2C[C@H](F)C3)nc2c(F)c(-c3ccc(F)c4sc(N)c(C#N)c34)c(C(F)(F)F)cc12)[C@H]1C[C@@H](C)N(C(=O)N(C)C)C1 (atropisomer, axis not shown) [Compound 558]
 |  |  |  |  |  | < 100 | 100 to 1000 | 100 to 1000 | 100 to 1000 | < 100 | < 100 |  |  |  |  | COC(=O)N1CC[C@H](N(c2nc(OC[C@@]34CCCN3C[C@H](F)C4)nc3c(F)c(-c4ccc(F)c5sc(N)c(C#N)c45)c(C(F)(F)F)cc23)C2CC2)C1 (atropisomer, axis not shown) [Compound 767]
< 100 | 100 to 1000 | 100 to 1000 | 100 to 1000 | < 100 | 100 to 1000 |  |  |  |  |  |  |  |  |  |  | C[C@@H]1[C@H](N(C)c2nc(OC[C@@]34CCCN3C[C@H](F)C4)nc3c(F)c(-c4ccc(F)c5sc(N)c(C#N)c45)c(Cl)cc23)CCN1C(=O)C1CC1 [Compound 401]
< 100 | 100 to 1000 | 1000 to 10000 | 100 to 1000 | < 100 | 100 to 1000 |  |  |  |  |  |  |  |  |  |  | CCN(c1nc(OC[C@@]23CCCN2C[C@H](F)C3)nc2c(F)c(-c3ccc(F)c4sc(N)c(C#N)c34)c(C(F)(F)F)cc12)[C@@H]1CCN(C(=O)C2CC2)[C@H]1C [Compound 415]
100 to 1000 |  |  |  | < 100 |  |  |  |  |  |  |  | 100 to 1000 | 100 to 1000 | 100 to 1000 | 100 to 1000 | CC(=O)N(C)[C@@H]1CCN(c2nc(OC[C@@]34CCCN3C[C@H](F)C4)nc3c(F)c(-c4ccc(F)c5sc(N)c(C#N)c45)c(C(F)(F)F)cc23)C1 [Compound 207]
